{"source": "patent US20150050410A1", "about": "“COMPOUNDS, COMPOSITIONS, AND METHODS FOR MODULATING SWEET TASTE” (Chromocell Corporation, priority 2013, published 2015)", "key": {"[1]": {"system": "perception of the sweet taste in humans", "assay": "Trained descriptive analysis (DA) panel, sweet attribute", "format": "in vivo", "conditions": "for compound effects beyond the additive effect of inherent sweetness: 4% fructose and 8% sucrose; for DA Panel Average Sweetness Intensity Score (on 15 cm scale): inherent sweetness, 35 ppm compound plus solubilizing agent, 1 cm = 1% sucrose", "description": "The effect of the test compounds on the perception of the sweet taste in an aqueous environment, in the absence or presence of carbohydrate sweeteners, was evaluated using a descriptive analysis methodology with a group of trained panelists, as follows.\nCandidate panelists were recruited, with prescreening and personal interviews, and were assessed for their ability to detect, recognize and differentiate basic taste attributes or mixtures thereof as part of a standardized acuity test. These candidate panelists were also assessed for their innate ability to identify flavors, and to rank on intensity scales. Other senses such as smell and vision were also included as part of the assessment. Candidates also were screened for their ability to use the language to describe and articulate ideas.\nSelected candidates proceeded to training as a group in three phases: (1) Lexicon development, (2) Concept alignment, and (3) Scaling descriptors. During lexicon development, panelists evaluated products appropriate for use in the study to generate and align on terms describing the flavor, taste, aromatic, trigeminal, and temporal attributes. During concept alignment, the panel evaluated the products mentioned above to clarify and confirm the attributes that were generated during lexicon development using reference standards that appropriately define each attribute; these are either physical references (e.g. sucrose solutions) or verbal descriptions (e.g. overall flavor). Product terms and concepts were validated during this portion of the study.\nIn the last phase, scaling descriptors, the panel participated in a series of exercises focused on ordering and ranking samples according to relative attribute intensity, measuring attribute intensity using a defined length of line scale. Whenever possible, different levels or concentration of references were used as anchors to facilitate use of the scale. Panelists were provided with blinded references at this stage to evaluate their understanding and perception of the scale.\nThe panel used in this example was trained to reference sweet attributes in an absolute manner, such that a particular concentration of sweetener is always measured by the panelists at the same point using a 15 cm line scale where each cm represents a 1% increase in sucrose to cover the range of 0% to 15% sucrose. For the rest of the attributes, the panel was trained using a hybrid approach between descriptive analysis methods (e.g. quantitative descriptive analysis, the sensory spectrum, etc.) well-known to those skilled in the art.\nThe trained panel was then used for a descriptive analysis assessment for Compounds 1, 2 and 3 in aqueous solutions at pH 3 and pH 7. Each of the three compounds was tested at 35 ppm in sucrose and fructose sweeteners. In addition, Compounds 1, 2 and 3 were also examined in water at pH 3 and pH 7 to assess for any inherent sweetness.\nThe aqueous sweetener solutions were prepared by adding, fructose or sucrose (by weight), to water to achieve the desired concentration. Aqueous sucrose solutions at pH 3 were buffered using a final concentration of 0.096% Citric Acid plus 0.036% Sodium Citrate while aqueous fructose solutions at pH 3 were buffered using a final concentration of 0.06% Citric Acid and 0.0225% Sodium Citrate.\nCompounds were first prepared as a […] concentrated stock solution in 100% ethanol. These concentrated stocks were then added to the aqueous sweetener solutions to result in a final ethanol concentration of 0.2%. In addition to compounds, a solubilizing agent at a final concentration of 0.02% was added to the aqueous sweetener solutions. Control samples were also balanced with 0.2% ethanol and in certain cases 0.02% solubilizing agent.\nBoth control (aqueous sweetener solutions without compound) and variant (aqueous sweetener solutions with compound) samples were blinded and randomized (by sweetener and pH blocks). […]"}, "[2]": {"system": "perception of sweet taste, in an aqueous solution, in humans", "assay": "Inherent sweetness assessment, difference from control \"sip and spit\" method", "format": "in vivo", "conditions": "no sweetener", "description": "The taste test panelists used in the Examples 1-3 were selected using a sensory acuity screening program. Candidate taste panelists were recruited, with prescreening and personal interviews, and were assessed and for their ability to detect, recognize and differentiate basic taste attributes or mixtures thereof as part of a standardized acuity test. This included basic tastes of sweet, sour, salty, bitter and umami, as well as having the capacity to focus on specific aspects of sensory character such as ranking the various tastes perceived and identifying the basic tastes presented at threshold levels.\nThe aqueous sucrose solutions were prepared by adding, sucrose (by weight), to water to achieve the desired concentration.\nCompounds were first prepared as a 500-fold concentrated stock solution in 100% ethanol. These concentrated stocks were then added to water to result in a final ethanol concentration of 0.2%. The control (including positive control) samples were also normalized to 0.2% ethanol. This level of ethanol was not seen to contribute any perceived sweetness.\nThe intrinsic effect of test compounds on the perception of sweet taste, in an aqueous solution, in humans was evaluated using a difference from control “sip and spit” method employing a verbal category scale.\nIn this method, panelists (n=12) evaluate one pair of samples at a time—one sample contains water plus compound (i.e. test) while the other contains water without compound (i.e. control). Panelists were instructed to first taste the un-blinded control followed by the test sample and asked to rate the size of sweetness difference between the test and control sample, using a 6 point verbal category scale:\nVerbal Category Scale • No difference • Slight difference • Slight/moderate difference • Moderate difference • Moderate/large difference • Very large difference […]"}, "tasters": {"system": "tasters", "conditions": "DuBois, et al., J. Med. Chem., 1981; cited from earlier work"}}}
{"smiles": "COc1ccc(C2CC(=O)c3c(O)cccc3O2)cc1O", "note": "(racemic) [Compound 1, 5-hydroxy-2-(3-hydroxy-4-methoxyphenyl)chroman-4-one]", "values": [{"measurement": "compound effects beyond the additive effect of inherent sweetness", "setting": "[1]; pH 3, 35 ppm, Table 7 vs Table 5", "value": "super-additive effects"}, {"measurement": "compound effects beyond the additive effect of inherent sweetness", "setting": "[1]; pH 7, 35 ppm, Table 6 vs Table 4", "value": "super-additive effects"}, {"measurement": "perceived sweetness compared to control sweetener solutions (FIG. 2)", "setting": "[1]; aqueous fructose and sucrose solutions at pH 3, 35 ppm, ** p<0.01", "value": "significant increase in perceived sweetness"}, {"measurement": "perceived sweetness compared to control sweetener solutions (FIG. 1)", "setting": "[1]; aqueous fructose and sucrose solutions at pH 7, 35 ppm, ** p<0.01", "value": "significant increase in perceived sweetness"}, {"measurement": "DA Panel Average Sweetness Intensity Score (on 15 cm scale)", "setting": "[1]; citric acid-citrate solution pH 3", "value": "do not show further significant increase in perceived inherent sweetness"}, {"measurement": "DA Panel Average Sweetness Intensity Score (on 15 cm scale)", "setting": "[1]; water pH 7", "value": "further increase in perceived sweetness"}, {"measurement": "Correlated Inherent Sweetness Assessment", "setting": "[2]; compound 10 ppm in water", "value": 0, "unit": "% sucrose"}, {"measurement": "Correlated Inherent Sweetness Assessment", "setting": "[2]; compound 15 ppm in water", "value": "0%-0.5%"}, {"measurement": "Correlated Inherent Sweetness Assessment", "setting": "[2]; compound 25 ppm in water", "value": "0%-0.5%"}, {"measurement": "reported sweet flavor", "setting": "tasters", "value": "sweet flavor"}]}
